Source: the kinase profiling compilation of Christmann-Franck et al. (2016)

tested on: ARAF (human), P10398 [Y301D/Y302D]; assay: radiometric filter-binding kinase assay, Kinase HotSpot; conditions: compound 0.5 µM; ATP 10 µM

SMILES	residual activity [%]
O=C1Cc2c([nH]c3ccc([N+](=O)[O-])cc23)-c2ccccc2N1	96.2
CC(C)(C)c1nc2c3ccc(F)cc3c3c(=O)[nH]ccc3c2[nH]1	122

molecular target: CDK2 CCNA2 (human) (UniProt P24941+P20248); assay: as above; conditions: compound 0.5 µM; ATP 10 µM
Sequence (P20248 whole entry, looked up, other chains not shown): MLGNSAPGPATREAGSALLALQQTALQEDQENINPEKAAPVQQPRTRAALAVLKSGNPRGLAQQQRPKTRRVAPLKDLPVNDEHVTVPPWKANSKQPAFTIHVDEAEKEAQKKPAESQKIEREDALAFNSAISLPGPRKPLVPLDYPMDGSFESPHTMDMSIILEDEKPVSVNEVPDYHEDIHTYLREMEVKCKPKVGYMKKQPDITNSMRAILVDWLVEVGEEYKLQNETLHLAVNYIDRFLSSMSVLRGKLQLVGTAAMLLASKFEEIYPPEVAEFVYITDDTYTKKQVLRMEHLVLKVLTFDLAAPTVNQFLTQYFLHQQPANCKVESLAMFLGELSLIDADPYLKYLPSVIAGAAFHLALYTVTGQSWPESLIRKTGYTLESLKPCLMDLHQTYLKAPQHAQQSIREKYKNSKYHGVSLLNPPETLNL

SMILES	residual activity [%]
O=c1cc(-c2cccc3c2Sc2ccccc2S3)oc(N2CCOCC2)c1	101
Nc1nc(Nc2ccc(S(N)(=O)=O)cc2)nn1C(=S)Nc1c(F)cccc1F	1.56
O=C1Cc2c([nH]c3ccc([N+](=O)[O-])cc23)-c2ccccc2N1	8.37
CC(C)(C)c1nc2c3ccc(F)cc3c3c(=O)[nH]ccc3c2[nH]1	86.2
O=C(NC(NC(=S)Nc1ccc(F)c([N+](=O)[O-])c1)C(Cl)(Cl)Cl)C(c1ccccc1)c1ccccc1 (stereo not drawn)	102
O=C1Nc2ccccc2/C1=C\c1c(Cl)[nH]c2ccccc12	91.5

molecular target: TEC (human) (UniProt P42680); assay: as above; conditions: compound 0.5 µM; ATP 10 µM
Sequence (P42680 whole entry, looked up): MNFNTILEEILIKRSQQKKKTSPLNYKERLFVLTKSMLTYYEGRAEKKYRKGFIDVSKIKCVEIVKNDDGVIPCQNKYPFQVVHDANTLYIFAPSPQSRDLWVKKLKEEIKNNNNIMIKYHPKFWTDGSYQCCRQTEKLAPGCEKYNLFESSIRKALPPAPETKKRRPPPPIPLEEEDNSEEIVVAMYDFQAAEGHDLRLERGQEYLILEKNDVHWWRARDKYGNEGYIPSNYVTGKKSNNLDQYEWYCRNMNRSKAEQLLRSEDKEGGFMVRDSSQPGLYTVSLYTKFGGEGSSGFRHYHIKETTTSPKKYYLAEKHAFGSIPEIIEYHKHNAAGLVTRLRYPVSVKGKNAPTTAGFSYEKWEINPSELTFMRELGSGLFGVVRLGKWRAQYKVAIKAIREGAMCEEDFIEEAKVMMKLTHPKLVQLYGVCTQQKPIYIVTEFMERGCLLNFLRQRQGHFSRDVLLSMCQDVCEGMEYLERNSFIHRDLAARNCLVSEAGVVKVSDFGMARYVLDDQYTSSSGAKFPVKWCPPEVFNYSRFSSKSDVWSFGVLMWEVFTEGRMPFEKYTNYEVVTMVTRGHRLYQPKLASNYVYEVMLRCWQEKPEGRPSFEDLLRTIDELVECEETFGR

SMILES	residual activity [%]
O=c1cc(-c2cccc3c2Sc2ccccc2S3)oc(N2CCOCC2)c1	198
Nc1nc(Nc2ccc(S(N)(=O)=O)cc2)nn1C(=S)Nc1c(F)cccc1F	106
O=C1Cc2c([nH]c3ccc([N+](=O)[O-])cc23)-c2ccccc2N1	137
CC(C)(C)c1nc2c3ccc(F)cc3c3c(=O)[nH]ccc3c2[nH]1	106
O=C(NC(NC(=S)Nc1ccc(F)c([N+](=O)[O-])c1)C(Cl)(Cl)Cl)C(c1ccccc1)c1ccccc1 (stereo not drawn)	201
O=C1Nc2ccccc2/C1=C\c1c(Cl)[nH]c2ccccc12	124

molecular target: PRKCB2 (human) (UniProt P05771); assay: as above; conditions: compound 0.5 µM; ATP 10 µM

SMILES	residual activity [%]
O=c1cc(-c2cccc3c2Sc2ccccc2S3)oc(N2CCOCC2)c1	105
Nc1nc(Nc2ccc(S(N)(=O)=O)cc2)nn1C(=S)Nc1c(F)cccc1F	74.5
O=C1Cc2c([nH]c3ccc([N+](=O)[O-])cc23)-c2ccccc2N1	105
CC(C)(C)c1nc2c3ccc(F)cc3c3c(=O)[nH]ccc3c2[nH]1	90.6
O=C(NC(NC(=S)Nc1ccc(F)c([N+](=O)[O-])c1)C(Cl)(Cl)Cl)C(c1ccccc1)c1ccccc1 (stereo not drawn)	107
O=C1Nc2ccccc2/C1=C\c1c(Cl)[nH]c2ccccc12	92.6

molecular target: OXSR1 (human) (UniProt O95747); assay: as above; conditions: compound 0.5 µM; ATP 10 µM
Sequence (O95747 whole entry, looked up): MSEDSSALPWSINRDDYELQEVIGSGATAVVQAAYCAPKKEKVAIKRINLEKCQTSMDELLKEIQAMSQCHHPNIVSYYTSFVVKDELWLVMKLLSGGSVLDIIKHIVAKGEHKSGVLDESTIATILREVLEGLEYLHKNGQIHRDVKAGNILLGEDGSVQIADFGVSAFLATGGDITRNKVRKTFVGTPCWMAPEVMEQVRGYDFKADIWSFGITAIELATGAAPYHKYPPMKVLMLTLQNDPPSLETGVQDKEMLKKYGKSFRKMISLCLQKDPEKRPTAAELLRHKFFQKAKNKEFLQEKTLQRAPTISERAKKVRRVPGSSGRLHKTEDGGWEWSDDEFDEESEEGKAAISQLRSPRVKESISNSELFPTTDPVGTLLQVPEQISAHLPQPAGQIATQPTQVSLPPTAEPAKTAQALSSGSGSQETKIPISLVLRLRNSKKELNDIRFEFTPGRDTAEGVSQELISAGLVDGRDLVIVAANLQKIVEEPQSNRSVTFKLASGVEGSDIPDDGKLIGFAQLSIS

SMILES	residual activity [%]
O=c1cc(-c2cccc3c2Sc2ccccc2S3)oc(N2CCOCC2)c1	96.1
Nc1nc(Nc2ccc(S(N)(=O)=O)cc2)nn1C(=S)Nc1c(F)cccc1F	67.6
O=C1Cc2c([nH]c3ccc([N+](=O)[O-])cc23)-c2ccccc2N1	97
CC(C)(C)c1nc2c3ccc(F)cc3c3c(=O)[nH]ccc3c2[nH]1	100
O=C(NC(NC(=S)Nc1ccc(F)c([N+](=O)[O-])c1)C(Cl)(Cl)Cl)C(c1ccccc1)c1ccccc1 (stereo not drawn)	98.3
O=C1Nc2ccccc2/C1=C\c1c(Cl)[nH]c2ccccc12	89.1

molecular target: PASK (human) (UniProt Q96RG2); assay: as above; conditions: compound 0.5 µM; ATP 10 µM
Sequence (Q96RG2 whole entry, looked up): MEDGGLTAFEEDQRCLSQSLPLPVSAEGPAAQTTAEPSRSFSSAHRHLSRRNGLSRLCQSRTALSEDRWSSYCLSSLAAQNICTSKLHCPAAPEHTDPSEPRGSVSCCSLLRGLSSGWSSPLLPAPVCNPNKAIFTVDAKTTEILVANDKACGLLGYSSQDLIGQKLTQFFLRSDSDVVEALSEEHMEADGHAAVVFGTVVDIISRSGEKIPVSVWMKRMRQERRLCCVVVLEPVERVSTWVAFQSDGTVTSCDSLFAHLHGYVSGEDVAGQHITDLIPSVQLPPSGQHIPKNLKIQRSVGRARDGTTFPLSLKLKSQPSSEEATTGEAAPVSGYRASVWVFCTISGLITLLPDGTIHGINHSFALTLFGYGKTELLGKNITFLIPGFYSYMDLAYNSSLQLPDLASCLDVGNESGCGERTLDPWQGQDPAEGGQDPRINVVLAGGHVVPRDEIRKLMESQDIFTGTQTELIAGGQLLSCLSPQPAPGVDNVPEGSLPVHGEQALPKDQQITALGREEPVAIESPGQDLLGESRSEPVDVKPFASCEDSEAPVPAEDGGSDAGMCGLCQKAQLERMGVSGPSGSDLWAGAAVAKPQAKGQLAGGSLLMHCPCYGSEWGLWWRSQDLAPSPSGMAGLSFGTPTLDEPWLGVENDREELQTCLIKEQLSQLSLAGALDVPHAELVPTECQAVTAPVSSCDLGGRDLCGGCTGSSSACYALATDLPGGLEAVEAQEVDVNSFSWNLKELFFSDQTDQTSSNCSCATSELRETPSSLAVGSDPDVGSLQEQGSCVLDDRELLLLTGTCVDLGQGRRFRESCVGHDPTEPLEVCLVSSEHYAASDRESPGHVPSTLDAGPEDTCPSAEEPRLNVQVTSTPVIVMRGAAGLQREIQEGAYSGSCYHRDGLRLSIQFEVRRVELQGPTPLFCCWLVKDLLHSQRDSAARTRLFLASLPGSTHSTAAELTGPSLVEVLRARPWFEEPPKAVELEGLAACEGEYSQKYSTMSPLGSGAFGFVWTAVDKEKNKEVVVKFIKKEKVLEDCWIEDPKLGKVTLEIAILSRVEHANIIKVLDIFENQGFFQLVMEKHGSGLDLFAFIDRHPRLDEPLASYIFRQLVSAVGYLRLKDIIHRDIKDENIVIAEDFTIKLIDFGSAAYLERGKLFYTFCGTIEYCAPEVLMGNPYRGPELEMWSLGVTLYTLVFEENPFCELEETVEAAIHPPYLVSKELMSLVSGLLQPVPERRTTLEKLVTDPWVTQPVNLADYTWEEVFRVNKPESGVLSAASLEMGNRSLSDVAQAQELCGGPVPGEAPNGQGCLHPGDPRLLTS

SMILES	residual activity [%]
O=c1cc(-c2cccc3c2Sc2ccccc2S3)oc(N2CCOCC2)c1	101
Nc1nc(Nc2ccc(S(N)(=O)=O)cc2)nn1C(=S)Nc1c(F)cccc1F	91.8
O=C1Cc2c([nH]c3ccc([N+](=O)[O-])cc23)-c2ccccc2N1	86.9
CC(C)(C)c1nc2c3ccc(F)cc3c3c(=O)[nH]ccc3c2[nH]1	83.2
O=C(NC(NC(=S)Nc1ccc(F)c([N+](=O)[O-])c1)C(Cl)(Cl)Cl)C(c1ccccc1)c1ccccc1 (stereo not drawn)	104
O=C1Nc2ccccc2/C1=C\c1c(Cl)[nH]c2ccccc12	89.3

molecular target: ULK1 (human) (UniProt O75385); assay: as above; conditions: compound 0.5 µM; ATP 10 µM

SMILES	residual activity [%]
O=c1cc(-c2cccc3c2Sc2ccccc2S3)oc(N2CCOCC2)c1	91.9
Nc1nc(Nc2ccc(S(N)(=O)=O)cc2)nn1C(=S)Nc1c(F)cccc1F	5.03
O=C1Cc2c([nH]c3ccc([N+](=O)[O-])cc23)-c2ccccc2N1	85.1
CC(C)(C)c1nc2c3ccc(F)cc3c3c(=O)[nH]ccc3c2[nH]1	12.8
O=C(NC(NC(=S)Nc1ccc(F)c([N+](=O)[O-])c1)C(Cl)(Cl)Cl)C(c1ccccc1)c1ccccc1 (stereo not drawn)	99.1
O=C1Nc2ccccc2/C1=C\c1c(Cl)[nH]c2ccccc12	106

molecular target: EPHB1 (human) (UniProt P54762); assay: as above; conditions: compound 0.5 µM; ATP 10 µM
Sequence (P54762 whole entry, looked up): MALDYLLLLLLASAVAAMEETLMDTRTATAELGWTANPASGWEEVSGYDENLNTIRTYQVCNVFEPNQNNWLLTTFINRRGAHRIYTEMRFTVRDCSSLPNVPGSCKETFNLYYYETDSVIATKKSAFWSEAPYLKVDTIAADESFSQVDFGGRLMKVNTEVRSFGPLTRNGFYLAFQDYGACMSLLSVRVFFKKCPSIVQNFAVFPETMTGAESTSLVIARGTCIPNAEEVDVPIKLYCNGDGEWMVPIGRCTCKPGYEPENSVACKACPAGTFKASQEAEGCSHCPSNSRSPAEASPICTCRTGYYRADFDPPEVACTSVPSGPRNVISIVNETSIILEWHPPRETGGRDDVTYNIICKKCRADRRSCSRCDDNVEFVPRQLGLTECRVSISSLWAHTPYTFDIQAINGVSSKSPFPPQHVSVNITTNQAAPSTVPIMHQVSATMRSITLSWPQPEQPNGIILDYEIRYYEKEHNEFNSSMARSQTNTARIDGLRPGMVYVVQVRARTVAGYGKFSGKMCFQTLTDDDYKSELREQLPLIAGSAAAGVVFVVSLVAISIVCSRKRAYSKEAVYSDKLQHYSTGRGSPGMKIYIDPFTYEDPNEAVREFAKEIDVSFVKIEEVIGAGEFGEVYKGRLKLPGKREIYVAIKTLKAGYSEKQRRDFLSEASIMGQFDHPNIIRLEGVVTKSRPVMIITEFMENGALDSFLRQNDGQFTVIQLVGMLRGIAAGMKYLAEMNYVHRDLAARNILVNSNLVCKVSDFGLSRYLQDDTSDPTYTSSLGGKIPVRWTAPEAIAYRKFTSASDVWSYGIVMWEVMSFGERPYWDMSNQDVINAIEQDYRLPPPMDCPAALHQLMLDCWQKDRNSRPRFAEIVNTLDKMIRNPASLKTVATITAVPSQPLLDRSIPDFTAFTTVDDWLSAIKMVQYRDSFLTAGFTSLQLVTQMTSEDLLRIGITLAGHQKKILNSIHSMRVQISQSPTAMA

SMILES	residual activity [%]
O=c1cc(-c2cccc3c2Sc2ccccc2S3)oc(N2CCOCC2)c1	110
Nc1nc(Nc2ccc(S(N)(=O)=O)cc2)nn1C(=S)Nc1c(F)cccc1F	19.4
O=C1Cc2c([nH]c3ccc([N+](=O)[O-])cc23)-c2ccccc2N1	112
CC(C)(C)c1nc2c3ccc(F)cc3c3c(=O)[nH]ccc3c2[nH]1	94.9
O=C(NC(NC(=S)Nc1ccc(F)c([N+](=O)[O-])c1)C(Cl)(Cl)Cl)C(c1ccccc1)c1ccccc1 (stereo not drawn)	109
O=C1Nc2ccccc2/C1=C\c1c(Cl)[nH]c2ccccc12	90.8

molecular target: AURKC (human) (UniProt Q9UQB9); assay: as above; conditions: compound 0.5 µM; ATP 10 µM

SMILES	residual activity [%]
O=c1cc(-c2cccc3c2Sc2ccccc2S3)oc(N2CCOCC2)c1	84.9
Nc1nc(Nc2ccc(S(N)(=O)=O)cc2)nn1C(=S)Nc1c(F)cccc1F	16.2
CC(C)(C)c1nc2c3ccc(F)cc3c3c(=O)[nH]ccc3c2[nH]1	29.3
O=C(NC(NC(=S)Nc1ccc(F)c([N+](=O)[O-])c1)C(Cl)(Cl)Cl)C(c1ccccc1)c1ccccc1 (stereo not drawn)	93.8
O=C1Nc2ccccc2/C1=C\c1c(Cl)[nH]c2ccccc12	89.5

molecular target: BRAF (human) (UniProt P15056); assay: as above; conditions: compound 0.5 µM; ATP 10 µM

SMILES	residual activity [%]
Nc1nc(Nc2ccc(S(N)(=O)=O)cc2)nn1C(=S)Nc1c(F)cccc1F	87.2
O=C1Cc2c([nH]c3ccc([N+](=O)[O-])cc23)-c2ccccc2N1	99.5
CC(C)(C)c1nc2c3ccc(F)cc3c3c(=O)[nH]ccc3c2[nH]1	117

molecular target: EGFR (human) (UniProt P00533); assay: as above; conditions: compound 0.5 µM; ATP 10 µM

SMILES	residual activity [%]
O=c1cc(-c2cccc3c2Sc2ccccc2S3)oc(N2CCOCC2)c1	107
CC(C)(C)c1nc2c3ccc(F)cc3c3c(=O)[nH]ccc3c2[nH]1	94.8
O=C(NC(NC(=S)Nc1ccc(F)c([N+](=O)[O-])c1)C(Cl)(Cl)Cl)C(c1ccccc1)c1ccccc1 (stereo not drawn)	108
O=C1Nc2ccccc2/C1=C\c1c(Cl)[nH]c2ccccc12	97.5

molecular target: CDK9 CCNT1 (human) (UniProt P50750+O60563); assay: as above; conditions: compound 0.5 µM; ATP 10 µM

SMILES	residual activity [%]
O=c1cc(-c2cccc3c2Sc2ccccc2S3)oc(N2CCOCC2)c1	100
Nc1nc(Nc2ccc(S(N)(=O)=O)cc2)nn1C(=S)Nc1c(F)cccc1F	15.6
O=C1Cc2c([nH]c3ccc([N+](=O)[O-])cc23)-c2ccccc2N1	22.6
CC(C)(C)c1nc2c3ccc(F)cc3c3c(=O)[nH]ccc3c2[nH]1	100
O=C(NC(NC(=S)Nc1ccc(F)c([N+](=O)[O-])c1)C(Cl)(Cl)Cl)C(c1ccccc1)c1ccccc1 (stereo not drawn)	95
O=C1Nc2ccccc2/C1=C\c1c(Cl)[nH]c2ccccc12	98.4

molecular target: PDGFRB (human) (UniProt P09619); assay: as above; conditions: compound 0.5 µM; ATP 10 µM

SMILES	residual activity [%]
O=c1cc(-c2cccc3c2Sc2ccccc2S3)oc(N2CCOCC2)c1	102
Nc1nc(Nc2ccc(S(N)(=O)=O)cc2)nn1C(=S)Nc1c(F)cccc1F	45.6
O=C1Cc2c([nH]c3ccc([N+](=O)[O-])cc23)-c2ccccc2N1	87.4
O=C(NC(NC(=S)Nc1ccc(F)c([N+](=O)[O-])c1)C(Cl)(Cl)Cl)C(c1ccccc1)c1ccccc1 (stereo not drawn)	105
O=C1Nc2ccccc2/C1=C\c1c(Cl)[nH]c2ccccc12	102

molecular target: PRKD3 (human) (UniProt O94806); assay: as above; conditions: compound 0.5 µM; ATP 10 µM

SMILES	residual activity [%]
O=c1cc(-c2cccc3c2Sc2ccccc2S3)oc(N2CCOCC2)c1	83.4
Nc1nc(Nc2ccc(S(N)(=O)=O)cc2)nn1C(=S)Nc1c(F)cccc1F	7.37
O=C1Cc2c([nH]c3ccc([N+](=O)[O-])cc23)-c2ccccc2N1	88.2
CC(C)(C)c1nc2c3ccc(F)cc3c3c(=O)[nH]ccc3c2[nH]1	10.8
O=C(NC(NC(=S)Nc1ccc(F)c([N+](=O)[O-])c1)C(Cl)(Cl)Cl)C(c1ccccc1)c1ccccc1 (stereo not drawn)	98.5
O=C1Nc2ccccc2/C1=C\c1c(Cl)[nH]c2ccccc12	87.7

molecular target: MAP3K8 (human) (UniProt P41279); assay: as above; conditions: compound 0.5 µM; ATP 10 µM
Sequence (P41279 whole entry, looked up): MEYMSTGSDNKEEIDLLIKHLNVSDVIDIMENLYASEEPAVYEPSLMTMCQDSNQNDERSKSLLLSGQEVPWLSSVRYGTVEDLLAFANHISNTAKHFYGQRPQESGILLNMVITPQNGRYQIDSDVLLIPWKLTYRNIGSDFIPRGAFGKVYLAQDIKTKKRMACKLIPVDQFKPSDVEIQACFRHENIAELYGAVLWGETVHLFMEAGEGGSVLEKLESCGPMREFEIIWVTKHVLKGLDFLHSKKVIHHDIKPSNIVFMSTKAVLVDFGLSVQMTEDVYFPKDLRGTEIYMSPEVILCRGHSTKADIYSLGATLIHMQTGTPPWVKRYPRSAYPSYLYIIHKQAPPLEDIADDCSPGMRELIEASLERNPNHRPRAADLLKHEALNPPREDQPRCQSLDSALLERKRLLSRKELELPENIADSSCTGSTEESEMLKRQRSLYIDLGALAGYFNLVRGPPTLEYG

SMILES	residual activity [%]
O=c1cc(-c2cccc3c2Sc2ccccc2S3)oc(N2CCOCC2)c1	103
Nc1nc(Nc2ccc(S(N)(=O)=O)cc2)nn1C(=S)Nc1c(F)cccc1F	127
O=C1Cc2c([nH]c3ccc([N+](=O)[O-])cc23)-c2ccccc2N1	99
CC(C)(C)c1nc2c3ccc(F)cc3c3c(=O)[nH]ccc3c2[nH]1	128
O=C(NC(NC(=S)Nc1ccc(F)c([N+](=O)[O-])c1)C(Cl)(Cl)Cl)C(c1ccccc1)c1ccccc1 (stereo not drawn)	105
O=C1Nc2ccccc2/C1=C\c1c(Cl)[nH]c2ccccc12	94.3

molecular target: EPHA4 (human) (UniProt P54764); assay: as above; conditions: compound 0.5 µM; ATP 10 µM

SMILES	residual activity [%]
O=c1cc(-c2cccc3c2Sc2ccccc2S3)oc(N2CCOCC2)c1	101
Nc1nc(Nc2ccc(S(N)(=O)=O)cc2)nn1C(=S)Nc1c(F)cccc1F	54.8
O=C1Cc2c([nH]c3ccc([N+](=O)[O-])cc23)-c2ccccc2N1	96.5
CC(C)(C)c1nc2c3ccc(F)cc3c3c(=O)[nH]ccc3c2[nH]1	101
O=C(NC(NC(=S)Nc1ccc(F)c([N+](=O)[O-])c1)C(Cl)(Cl)Cl)C(c1ccccc1)c1ccccc1 (stereo not drawn)	101
O=C1Nc2ccccc2/C1=C\c1c(Cl)[nH]c2ccccc12	93.4

molecular target: HIPK3 (human) (UniProt Q9H422); assay: as above; conditions: compound 0.5 µM; ATP 10 µM

SMILES	residual activity [%]
O=c1cc(-c2cccc3c2Sc2ccccc2S3)oc(N2CCOCC2)c1	105
Nc1nc(Nc2ccc(S(N)(=O)=O)cc2)nn1C(=S)Nc1c(F)cccc1F	78.2
O=C1Cc2c([nH]c3ccc([N+](=O)[O-])cc23)-c2ccccc2N1	96.6
CC(C)(C)c1nc2c3ccc(F)cc3c3c(=O)[nH]ccc3c2[nH]1	78.6
O=C(NC(NC(=S)Nc1ccc(F)c([N+](=O)[O-])c1)C(Cl)(Cl)Cl)C(c1ccccc1)c1ccccc1 (stereo not drawn)	105
O=C1Nc2ccccc2/C1=C\c1c(Cl)[nH]c2ccccc12	100

molecular target: DMPK (human) (UniProt Q09013); assay: as above; conditions: compound 0.5 µM; ATP 10 µM
Sequence (Q09013 whole entry, looked up): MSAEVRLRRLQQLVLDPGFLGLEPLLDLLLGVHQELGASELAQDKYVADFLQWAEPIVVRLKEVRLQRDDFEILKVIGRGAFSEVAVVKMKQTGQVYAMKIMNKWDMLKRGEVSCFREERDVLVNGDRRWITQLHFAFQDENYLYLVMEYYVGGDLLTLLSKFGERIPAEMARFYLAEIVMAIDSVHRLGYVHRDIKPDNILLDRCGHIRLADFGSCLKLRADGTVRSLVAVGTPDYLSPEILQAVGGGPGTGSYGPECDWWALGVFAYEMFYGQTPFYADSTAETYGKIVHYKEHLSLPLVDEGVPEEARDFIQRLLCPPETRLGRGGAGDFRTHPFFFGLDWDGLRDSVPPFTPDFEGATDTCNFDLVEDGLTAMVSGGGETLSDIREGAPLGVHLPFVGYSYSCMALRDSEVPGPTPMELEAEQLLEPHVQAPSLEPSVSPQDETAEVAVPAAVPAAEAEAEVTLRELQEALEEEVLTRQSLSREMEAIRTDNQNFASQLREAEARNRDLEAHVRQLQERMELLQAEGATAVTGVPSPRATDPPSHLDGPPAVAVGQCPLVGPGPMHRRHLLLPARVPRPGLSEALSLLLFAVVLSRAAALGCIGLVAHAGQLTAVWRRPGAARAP

SMILES	residual activity [%]
O=c1cc(-c2cccc3c2Sc2ccccc2S3)oc(N2CCOCC2)c1	94.8
Nc1nc(Nc2ccc(S(N)(=O)=O)cc2)nn1C(=S)Nc1c(F)cccc1F	78.4
O=C1Cc2c([nH]c3ccc([N+](=O)[O-])cc23)-c2ccccc2N1	91.6
CC(C)(C)c1nc2c3ccc(F)cc3c3c(=O)[nH]ccc3c2[nH]1	105
O=C(NC(NC(=S)Nc1ccc(F)c([N+](=O)[O-])c1)C(Cl)(Cl)Cl)C(c1ccccc1)c1ccccc1 (stereo not drawn)	85.5
O=C1Nc2ccccc2/C1=C\c1c(Cl)[nH]c2ccccc12	101

molecular target: PRKCG (human) (UniProt P05129); assay: as above; conditions: compound 0.5 µM; ATP 10 µM

SMILES	residual activity [%]
O=c1cc(-c2cccc3c2Sc2ccccc2S3)oc(N2CCOCC2)c1	96.9
Nc1nc(Nc2ccc(S(N)(=O)=O)cc2)nn1C(=S)Nc1c(F)cccc1F	93
O=C1Cc2c([nH]c3ccc([N+](=O)[O-])cc23)-c2ccccc2N1	92.5
CC(C)(C)c1nc2c3ccc(F)cc3c3c(=O)[nH]ccc3c2[nH]1	79.9
O=C(NC(NC(=S)Nc1ccc(F)c([N+](=O)[O-])c1)C(Cl)(Cl)Cl)C(c1ccccc1)c1ccccc1 (stereo not drawn)	99.8
O=C1Nc2ccccc2/C1=C\c1c(Cl)[nH]c2ccccc12	89.2
